This test concerns MPNST multicellular tumor spheroids, viability % test/control. Briefly: Anticancer human tumor MPNST cell line growth inhibition.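 As to all read-outs here: spheroids exposed to agents for seven days after three days of growth.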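 As to viability, T/C: luminescence signal used as surrogate for viable cell amount.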 The conditions noted are these: for viability, T/C: stronger effect = lower value. In short, it runs like this:
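Single agents and combinations were tested on spheroids built from tumor cells plus HUVEC and hMSC, at half-log dilutions starting at or near clinical Cmax, else 10 microM; final DMSO 0.25% (v/v).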

SMILES strings stand for the structures. Values joined by “and” are separate entries in the source; they are usually repeats but may differ in a detail not shown here. Identical values can stand only once.

Consider `Cn1ncnc1[C@H]1c2n[nH]c(=O)c3cc(F)cc(c23)N[C@@H]1c1ccc(F)cc1`, for which the viability, T/C (compound 0.00949 µM) is 84.8% and 85.2% and 73.3%; the viability, T/C (compound 0.03 µM) is 105% and 79.8% and 70.5%; the viability, T/C (compound 0.0949 µM) is 91.6% and 74.7% and 66.9%; the viability, T/C (compound 0.3 µM) was 76.3% and 66% and 60.6%; the viability, T/C (compound 0.949 µM) is 67.1% and 53.2% and 46.5%; the viability, T/C (compound 3 µM) is 62.9% and 51.3% and 43.7%. In addition, the IC50 (curve of compound) is > 3 µM and 0.763 µM.
For the compound `CNCc1ccc(-c2cc(-c3nc(-c4ccc(S(=O)(=O)C(C)C)cc4)cnc3N)on2)cc1` + CC[C@@]1(O)C(=O)OCc2c1cc1n(c2=O)Cc2cc3c(CN(C)C)c(O)ccc3nc2-1, the half-maximal inhibitory concentration (IC50) reads like this: (curve of first compound, second compound 0.003 µM) greater than 3 µM; (curve of first compound, second compound 0.00949 µM) greater than 3 µM; (curve of first compound, second compound 0.03 µM) greater than 3 µM; (curve of first compound, second compound 0.0949 µM) greater than 3 µM; (curve of first compound, second compound 0.3 µM) less than 0.00949 µM. In addition, the viability, T/C by setting is: (second compound 0.003 µM, first compound 0.00949 µM) 104%; (second compound 0.003 µM, first compound 0.03 µM) 99.3%; (second compound 0.003 µM, first compound 0.0949 µM) 71.8%; (second compound 0.003 µM, first compound 0.3 µM) 61.4%; (second compound 0.003 µM, first compound 0.949 µM) 64.3%; (second compound 0.003 µM, first compound 3 µM) 61.7%. The viability, T/C is 75.6% (second compound 0.00949 µM, first compound 0.00949 µM); 74.3% (second compound 0.00949 µM, first compound 0.03 µM); 59.7% (second compound 0.00949 µM, first compound 0.0949 µM); 58% (second compound 0.00949 µM, first compound 0.3 µM); 60.3% (second compound 0.00949 µM, first compound 0.949 µM); 66.6% (second compound 0.00949 µM, first compound 3 µM). The viability, T/C is, setting by setting: (second compound 0.03 µM, first compound 0.00949 µM) 61.9%; (second compound 0.03 µM, first compound 0.03 µM) 55.1%; (second compound 0.03 µM, first compound 0.0949 µM) 53.8%; (second compound 0.03 µM, first compound 0.3 µM) 57.1%; (second compound 0.03 µM, first compound 0.949 µM) 63.7%; (second compound 0.03 µM, first compound 3 µM) 64.9%. The viability, T/C reads like this: (second compound 0.0949 µM, first compound 0.00949 µM) 57.7%; (second compound 0.0949 µM, first compound 0.03 µM) 54.8%; (second compound 0.0949 µM, first compound 0.0949 µM) 56.8%; (second compound 0.0949 µM, first compound 0.3 µM) 64.7%; (second compound 0.0949 µM, first compound 0.949 µM) 58.1%; (second compound 0.0949 µM, first compound 3 µM) 70.7%. For the same compound, the viability, T/C by setting is: (second compound 0.3 µM, first compound 0.00949 µM) 46.1%; (second compound 0.3 µM, first compound 0.03 µM) 45%; (second compound 0.3 µM, first compound 0.0949 µM) 48.8%; (second compound 0.3 µM, first compound 0.3 µM) 50%; (second compound 0.3 µM, first compound 0.949 µM) 55.5%; (second compound 0.3 µM, first compound 3 µM) 52.7%.
Regarding `Cc1sc2c(c1C)C(c1ccc(Cl)cc1)=NC(CC(=O)Nc1ccc(O)cc1)c1nnc(C)n1-2` (stereo not given), the viability, T/C is, setting by setting: (compound 0.00949 µM) 124% and 109% and 90.5%; (compound 0.03 µM) 110% and 117% and 95.1%; (compound 0.0949 µM) 92.3% and 99.1% and 60.3%; (compound 0.3 µM) 63.9% and 75.2% and 36.5%; (compound 0.949 µM) 51.5% and 55.6% and 23.4%; (compound 3 µM) 46.8% and 52.1% and 25.7%.
Take `[2H]c1nc(C)nc([2H])c1-c1cc(NC[C@@H](C)c2cccc3c(C(=O)NC)ccnc23)ncn1` + Cn1nnc2c(C(N)=O)ncn2c1=O: the IC50 is greater than 10 µM (curve of first compound, second compound 1 µM); greater than 10 µM (curve of first compound, second compound 3.16 µM); greater than 10 µM (curve of first compound, second compound 10 µM); greater than 10 µM (curve of first compound, second compound 31.6 µM); greater than 10 µM (curve of first compound, second compound 100 µM). For the same compound, the viability, T/C is 86.5% (second compound 1 µM, first compound 0.0316 µM); 86.8% (second compound 1 µM, first compound 0.1 µM); 93.2% (second compound 1 µM, first compound 0.316 µM); 101% (second compound 1 µM, first compound 1 µM); 97.3% (second compound 1 µM, first compound 3.16 µM); 104% (second compound 1 µM, first compound 10 µM). Besides, the viability, T/C reads like this: (second compound 3.16 µM, first compound 0.0316 µM) 114%; (second compound 3.16 µM, first compound 0.1 µM) 100%; (second compound 3.16 µM, first compound 0.316 µM) 76.3%; (second compound 3.16 µM, first compound 1 µM) 91%; (second compound 3.16 µM, first compound 3.16 µM) 89.8%; (second compound 3.16 µM, first compound 10 µM) 104%. The viability, T/C is, setting by setting: (second compound 10 µM, first compound 0.0316 µM) 81.1%; (second compound 10 µM, first compound 0.1 µM) 94.9%; (second compound 10 µM, first compound 0.316 µM) 108%; (second compound 10 µM, first compound 1 µM) 116%; (second compound 10 µM, first compound 3.16 µM) 94.1%; (second compound 10 µM, first compound 10 µM) 108%. For the same compound, the viability, T/C (second compound 31.6 µM, first compound 0.0316 µM) is 85%; the viability, T/C (second compound 31.6 µM, first compound 0.1 µM) is 85.9%; the viability, T/C (second compound 31.6 µM, first compound 0.316 µM) is 79.5%; the viability, T/C (second compound 31.6 µM, first compound 1 µM) is 96.8%; the viability, T/C (second compound 31.6 µM, first compound 3.16 µM) was 78.7%; the viability, T/C (second compound 31.6 µM, first compound 10 µM) was 101%. Besides, the viability, T/C (second compound 100 µM, first compound 0.0316 µM) was 89.5%; the viability, T/C (second compound 100 µM, first compound 0.1 µM) was 111%; the viability, T/C (second compound 100 µM, first compound 0.316 µM) is 113%; the viability, T/C (second compound 100 µM, first compound 1 µM) was 81.1%; the viability, T/C (second compound 100 µM, first compound 3.16 µM) is 107%; the viability, T/C (second compound 100 µM, first compound 10 µM) was 89.9%.
Take `COc1cc(C)[nH]c(=O)c1CN1CCc2c(Cl)cc(C(OC)C3COC3)c(Cl)c2C1=O` (stereo not given): the viability, T/C by setting is: (compound 0.0316 µM) 77.2% and 80.5% and 102%; (compound 0.1 µM) 79.6% and 90% and 88.8%; (compound 0.316 µM) 84.7% and 83.3% and 96%; (compound 1 µM) 95.8% and 93.7% and 93.3%; (compound 3.16 µM) 89.1% and 96.8% and 98.1%; (compound 10 µM) 85.9% and 98.7% and 92.1%. The IC50 (curve of compound) is greater than 10 µM.

One may read the viability, T/C as the result in the treated group divided by that in the control group, in per cent. What is called IC50 is the concentration at which inhibition is half-maximal.

(Values after PubChem BioAssay AID1845205 (Molecular Pharmacology Branch, DTP, NCI, 2023).)
